Laboratory results from article PMC7979765, “trans-Translation inhibitors bind to a novel site on the ribosome and clear Neisseria gonorrhoeae in vivo” (Nature Communications, 2021).
In brackets after ≈: the same amount, converted by molar mass. Several values for one entry are separate records, joined by “and”; a condition that tells them apart may be missing. Equal values may be shown once. Read-outs that look alike come from different tables or passages of the source.

Tests used:
[1] = tested on: Salmonella typhimurium strains TA98 and TA100; assay type: cell-based
Procedure: The Ames assay was performed at SRI Biosciences, following the standard protocols established there[55]–[57]. In brief, samples were evaluated for their ability to induce genetic damage using the plate incorporation method with Salmonella typhimurium strains TA98 and TA100 with and without a metabolic activation mixture containing 10% Aroclar-1254-induced rat-liver microsomes (S9). MBX-4132 was tested from a 5 mg/mL DMSO stock solution (the solubility limit), which provided plate concentrations up to 500 µg/plate, with serial dilutions accessing doses as low as 5 µg/plate. MBX-4132 precipitated at the two highest dose levels (500 and 100 µg/plate), but at 50 µg/plate, no precipitation was observed. […] Test articles were considered mutagenic when the mean number of revertant colonies increased in a dose-dependent manner. Some cytotoxicity was observed, but sufficient colonies were formed to allow analysis. […] Data for 2-nitrofluorene and sodium azide (positive controls) and DMSO (negative control) were included for reference.

[2] = tested on: N. gonorrhoeae ATCC 49226; test: Time-kill assay
[3] = tested on: Neisseria gonorrhoeae; test: MIC, microbroth dilution, G77L medium; assay type: cell-based
[4] = Aqueous solubility (nephelometric); assay type: physicochemical
[5] = Liver microsome stability, murine; assay type: in vitro ADME, mouse; details: murine liver microsomes
Procedure: To examine potential for first-pass metabolism of analogs in the liver, the stability of analogs in the presence of liver microsome preparations (Eurofins Discovery for human, dog and rat; Xenotech for mouse) was measured using the method of Kuhnz, et al.[50]. for murine studies and Oback for the dog, human and rat studies. The amount of parent compound remaining after incubation with microsomes in the presence of NADPH over a 30 min time range was measured using a reverse-phase liquid chromatography/mass spectroscopy method that was customized for each compound. Half-lives were calculated using linear regression analysis of several time points.

[6] = tested on: N. gonorrhoeae strain H041; test: In vivo efficacy in the gonorrhea mouse model; details: for mouse cfu: individual mice, 2.00E+01 = no CFU/mL recovered, limit of detection

## Nc1ccc2cc3ccccc3cc2c1 [2-Aminoanthracene, reference compound]
[1]; TA98, 2 µg/plate, + S9
  Average Mean Revertants/plate: 1206.7 Revertants/plate
[1]; TA98, 2 µg/plate, + S9, replicates
  Mean Revertants/plate: 1086 Revertants/plate and 1134 Revertants/plate and 1400 Revertants/plate
[1]; TA98, + S9, 2 µg/plate
  Mean Revertants/plate: 1206.7
[1]; TA100, 2 µg/plate, + S9
  Average Mean Revertants/plate: 1438.7 Revertants/plate
[1]; TA100, 2 µg/plate, + S9, replicates
  Mean Revertants/plate: 1428 Revertants/plate and 1389 Revertants/plate and 1499 Revertants/plate
[1]; TA100, + S9, 2 µg/plate
  Mean Revertants/plate: 1438.7

## O=[N+]([O-])c1ccc2c(c1)Cc1ccccc1-2 [2-Nitrofluorene, reference compound]
[1]; TA98, 5 µg/plate, no S9
  Average Mean Revertants/plate: 1331.3 Revertants/plate
[1]; TA98, 5 µg/plate, no S9, replicates
  Mean Revertants/plate: 1220 Revertants/plate and 1245 Revertants/plate and 1529 Revertants/plate
[1]; TA98, without S9, 5 µg/plate
  Mean Revertants/plate: 1331.3

## CO/N=C(\C(=O)N[C@@H]1C(=O)N2C(C(=O)O)=C(CSc3nc(=O)c(=O)[nH]n3C)CS[C@H]12)c1csc(N)n1 [CRO, reference compound]
[2]; 1X MIC, 0 h
  AVE CFU/ml: 9800000 CFU/ml
[2]; 1X MIC, 1 h
  AVE CFU/ml: 8.20E+06 CFU/ml and 8200000 CFU/ml
  CFU/mL, replicates 1-3: 8200000 CFU/mL and 8000000 CFU/mL and 8400000 CFU/mL
[2]; 1X MIC, 2 h
  AVE CFU/ml: 3.47E+06 CFU/ml and 3466667 CFU/ml
  CFU/mL, replicates 1-3: 3800000 CFU/mL and 3200000 CFU/mL and 3400000 CFU/mL
[2]; 1X MIC, 4 h
  AVE CFU/ml: 60666.7 CFU/ml and 6.07E+04 CFU/ml
  CFU/mL, replicates 1-3: 60000 CFU/mL and 58000 CFU/mL and 64000 CFU/mL
[2]; 1X MIC, 6 h
  AVE CFU/ml: 27333.3 CFU/ml and 2.73E+04 CFU/ml
  CFU/mL, replicates 1-3: 24000 CFU/mL and 32000 CFU/mL and 26000 CFU/mL
[2]; 1X MIC, 8 h
  AVE CFU/ml: 5733.33 CFU/ml and 5.73E+03 CFU/ml
  CFU/mL, replicates 1-3: 5800 CFU/mL and 5400 CFU/mL and 6000 CFU/mL
[2]; 1X MIC, 24 h
  AVE CFU/ml: 2466667 CFU/ml and 2.47E+06 CFU/ml
  CFU/mL, replicates 1-3: 2400000 CFU/mL and 2200000 CFU/mL and 2800000 CFU/mL
[2]; 4X MIC, 0 h
  AVE CFU/ml: 9800000 CFU/ml
[2]; 4X MIC, 1 h
  AVE CFU/ml: 7.67E+06 CFU/ml and 7666667 CFU/ml
  CFU/mL, replicates 1-3: 7800000 CFU/mL and 7200000 CFU/mL and 8000000 CFU/mL
[2]; 4X MIC, 2 h
  AVE CFU/ml: 3.87E+06 CFU/ml and 3866667 CFU/ml
  CFU/mL, replicates 1-3: 3400000 CFU/mL and 4000000 CFU/mL and 4200000 CFU/mL
[2]; 4X MIC, 4 h
  AVE CFU/ml: 40000 CFU/ml and 4.00E+04 CFU/ml
  CFU/mL, replicates 1-3: 36000 CFU/mL and 42000 CFU/mL (2×)
[2]; 4X MIC, 6 h
  AVE CFU/ml: 5266.67 CFU/ml and 5.27E+03 CFU/ml
  CFU/mL, replicates 1-3: 4400 CFU/mL and 5200 CFU/mL and 6200 CFU/mL
[2]; 4X MIC, 8 h
  AVE CFU/ml: 1066.67 CFU/ml and 1.07E+03 CFU/ml
  CFU/mL, replicates 1-3: 1400 CFU/mL and 800 CFU/mL and 1000 CFU/mL
[2]; 4X MIC, 24 h
  AVE CFU/ml: 0 CFU/ml and 0.00E+00 CFU/ml
  CFU/mL, replicates 1-3: 0 CFU/mL
[2]; Neisseria gonorrhoeae, ATCC49226
  MIC: 0.008 µg/mL (≈ 0.0144 µM)

## O=C(Nc1nnc(-c2ccc(F)cc2)o1)N1CCc2ccccc2C1 [MBX4132]
[3]; strain MMX 6744, single data point, Micromyx
  MIC: 0.27 µg/mL (≈ 0.798 µM)
[3]; strain MMX 6746, single data point, Micromyx
  MIC: 0.14 µg/mL (≈ 0.414 µM)
[3]; strain MMX 6752, single data point, Micromyx
  MIC: 0.27 µg/mL (≈ 0.798 µM)
[3]; strain MMX 6753, single data point, Micromyx
  MIC: 0.14 µg/mL (≈ 0.414 µM)
[3]; strain MMX 6757, single data point, Micromyx
  MIC: 0.07 µg/mL (≈ 0.207 µM)
[3]; strain MMX 6758, single data point, Micromyx
  MIC: 0.27 µg/mL (≈ 0.798 µM)
[3]; strain MMX 6762, single data point, Micromyx
  MIC: 0.27 µg/mL (≈ 0.798 µM)
[3]; strain MMX 6767, single data point, Micromyx
  MIC: 0.14 µg/mL (≈ 0.414 µM)
[3]; strain MMX 6771, single data point, Micromyx
  MIC: 0.14 µg/mL (≈ 0.414 µM)
[3]; strain MMX 6793, single data point, Micromyx
  MIC: 0.14 µg/mL (≈ 0.414 µM)
[3]; strain MMX 6797, single data point, Micromyx
  MIC: 0.14 µg/mL (≈ 0.414 µM)
[3]; strain MMX 6803, single data point, Micromyx
  MIC: 0.27 µg/mL (≈ 0.798 µM)
[3]; strain MMX 6812, single data point, Micromyx
  MIC: 0.27 µg/mL (≈ 0.798 µM)
[3]; strain MMX 6818, single data point, Micromyx
  MIC: 0.27 µg/mL (≈ 0.798 µM)
[3]; strain MMX 6819, single data point, Micromyx
  MIC: 0.14 µg/mL (≈ 0.414 µM)
[3]; strain MMX 6879, single data point, Micromyx
  MIC: 0.14 µg/mL (≈ 0.414 µM)
[3]; strain MMX 6921, single data point, Micromyx
  MIC: 0.53 µg/mL (≈ 1.57 µM)
[3]; strain MMX 6922, single data point, Micromyx
  MIC: 0.53 µg/mL (≈ 1.57 µM)
[3]; strain MMX 6983, single data point, Micromyx
  MIC: 0.53 µg/mL (≈ 1.57 µM)
[3]; strain MMX 6989, single data point, Micromyx
  MIC: 0.14 µg/mL (≈ 0.414 µM)
[3]; strain MMX 6990, single data point, Micromyx
  MIC: 0.14 µg/mL (≈ 0.414 µM)
[3]; strain MMX 6992, single data point, Micromyx
  MIC: 0.14 µg/mL (≈ 0.414 µM)
[3]; strain MMX 6996, single data point, Micromyx
  MIC: 0.27 µg/mL (≈ 0.798 µM)
[3]; strain MMX 6998, single data point, Micromyx
  MIC: 0.53 µg/mL (≈ 1.57 µM)
[3]; strain MMX 7002, single data point, Micromyx
  MIC: 0.27 µg/mL (≈ 0.798 µM)
[3]; strain MMX 7005, single data point, Micromyx
  MIC: 0.03 µg/mL (≈ 0.0887 µM)
[3]; strain MMX ATCC 49226, single data point, Micromyx
  MIC: 0.27 µg/mL (≈ 0.798 µM)

## O=C(Nc1nnc(-c2ccc(F)cc2)o1)c1ccccc1 [MBX-C4227]
[4]
  Average solubility: 50 µM
[4]; single replicates
  Solubility: 50 µM (≈ 14.2 µg/mL)
[5]; average of replicates
  Average MLMS t½: <5 min
[5]; individual replicates
  MLMS t½: <5 min

## O=C(Nc1nnc(-c2ccc(F)cc2)o1)c1ccccc1 [MBXC1-4227]
[3]; Neisseria gonorrhoeae ATCC 49226, source data, individual replicates
  MIC: 0.8852 µg/mL and 0.4426 µg/mL

## [N-]=[N+]=[N-].[Na+] [Sodium Azide, reference compound]
[1]; TA100, 5 µg/plate, no S9
  Average Mean Revertants/plate: 2029.0 Revertants/plate
[1]; TA100, 5 µg/plate, no S9, replicates
  Mean Revertants/plate: 1978 Revertants/plate and 2032 Revertants/plate and 2077 Revertants/plate
[1]; TA100, without S9, 5 µg/plate
  Mean Revertants/plate: 2029.0

## CNC(C)C1CCC(N)C(OC2C(N)CC(N)C(OC3OCC(C)(O)C(NC)C3O)C2O)O1 (stereo not shown) [gentamicin, reference compound]
[6]; Day 5, GEN, listed as GEN
  mouse cfu: 2.00E+01 CFU/mL (19×) and 3.11E+03 CFU/mL
[6]; Day 6, GEN, listed as GEN
  mouse cfu: 2.00E+01 CFU/mL (19×) and 6.14E+04 CFU/mL
[6]; Day 7, GEN, listed as GEN
  mouse cfu: 2.00E+01 CFU/mL (19×) and 3.22E+05 CFU/mL
[6]; Day 8, GEN, listed as GEN
  mouse cfu: 2.00E+01 CFU/mL (19×) and 5.02E+06 CFU/mL
[6]; Day -1, GEN, listed as GEN
  mouse cfu: 1.75E+06 CFU/mL and 2.50E+03 CFU/mL and 5.59E+05 CFU/mL and 1.30E+04 CFU/mL and 2.52E+05 CFU/mL and 1.60E+05 CFU/mL and 6.90E+06 CFU/mL and 1.04E+06 CFU/mL and 2.76E+04 CFU/mL and 2.76E+06 CFU/mL and 1.05E+03 CFU/mL and 2.80E+06 CFU/mL and 2.25E+06 CFU/mL and 3.27E+05 CFU/mL and 1.99E+05 CFU/mL and 1.82E+05 CFU/mL and 1.55E+06 CFU/mL and 1.50E+06 CFU/mL and 9.59E+05 CFU/mL and 4.61E+03 CFU/mL
[6]; GEN, individual mice 21-40, 1 = cleared on the day, 0 = not cleared, listed as GEN
  mice cleared per day: cleared flag: 1 and 0
[6]; GEN, individual mice 21-40, Day 8 with flag 0 = not cleared, listed as GEN
  Day (mice cleared per day: day on which the mouse was cleared): 1 and 4 and 8 and 3 and 5 and 2
[6]; daily intraperitoneal injection 48 mg/kg for 5 days, N. gonorrhoeae H041
  treated mice with infection cleared: 95%
